# Measurements from patent US6337069B1, “Method of treating rhinitis or sinusitis by intranasally administering a peptidase” (B.M.R.A. Corporation B.V., priority 2001, dated 2002).
# Ends that are not written are not given here.
# What was measured:
# [1] = tested on: vasodilation evoked by capsaicin; assay: Capsaicin-evoked vasodilation in pig nasal mucosa in vivo
# Procedure: Experiments were performed on pigs of both sexes (body weight 18-25 kg). All animals were premedicated with atropine (0.05 mg/kg) and ketamine (20 mg/kg i.m.). They were anesthesized with thiopentone (5 mg/kg i.v.). After tracheostomy, animals were intubated and artificially ventilated by a volume regulated ventilator. During surgery, animals were given a continuous i.v. infusion of Ringer's solution, pancuronium bromide (0.25 mg/kg) and heparin. […] Catheters were placed in the femoral artery for systemic blood pressure and heart rate monitoring and in the femoral vein for thiopentone, heparin and fluid administration (300 ml/hr). The contralateral femoral vein was canulated for blood sampling. […] Selective recording of the nasal arterial blood flow was performed with a Transonic flow probe (probe 2.4RB143) of 2.4 mm diameter placed around the sphenopalatine artery. The flow probe was connected to a T202S ultrasonic blood flowmeter. All the arterial branches situated downstream of the flow probe were ligated and cut except for the superficial temporal artery which was cannulated with a PE 90 catheter for infusions or injections.
# (§2) Variations in the area under the curve (AUC) of the sphenopalatine artery vascular resistance (Vr), derived from both mean arterial blood pressure and systemic blood flow curves, were analyzed over time. Durations of the responses of the vascular resistance were compared and all results were expressed in percent of baseline. Vascular parameters were recorded simultaneously using a 6 pen trace recorder.
# (§3) All animals were intranasally administered DPIV (50 μg, 26.5 pmoles/kg), subjected to sympathetic nerve stimulation (SNS, 15 V, 5 ms, 10 Hz for 2 minutes) and then infused with histamine (0.1-25 μg), capsacin (0.01-25 μg), bradykinin (0.001-10 μg), SP or its C-terminal fragment SP 5-11, DPPIV, or NK1 antagonist L733060 in the superficial temporal artery under controlled conditions. In each case, the vascular response of the animal was measured. This entire procedure was then repeated after local i.a. pretreatment with the alpha-adrenergic receptor antagonist phenoxybenzanime (1 mg/kg).
# [2] = tested on: histamine vasodilatory effects; assay: Histamine-evoked vasodilation in pig nasal mucosa in vivo; settings: no DPPIV
# Procedure: (§1) Each experiment lasted approximately 8 hours.
# [3] = Basal vascular parameters in the anaesthetised pig in vivo (blood flow, heart rate, MAP, vascular resistance)
# Procedure: as §1
# The basal blood flow in the internal maxillary artery of the pig under control conditions was 4.92+/−0.7 ml min^−1 kg^−1. After section of the sympathetic nerves on the left side, the homolateral nasal arterial flow was 6.1+/−0.26 ml min^−1 kg^−1 (representing a 19.34% +/−4.3% increase). The mean arterial blood pressure (MAP) was not modified by the section of the sympathetic nerves. […] Sympathetic nerve stimulation at 10 Hz for 5 minutes reduced the blood flow in the maxillary artery from 4.92+/−0.7 ml min^−1 kg^−1 to 1.40+/−0.47 ml min^−1 kg^−1, representing an […] of 71.5% and lasting more than 6 minutes. The i.a. infusion of phenoxybenzamine induced a MAP reduction of 10+/−2%.
# [4] = tested on: SP-evoked vasodilatory response; assay: Modulation of SP-evoked vasodilation in pig nasal mucosa in vivo; settings: pretreatment 114 nmoles/kg; all doses of SP used except 100 ng
# Procedure: Experiments were performed on pigs of both sexes (body weight 18-25 kg). All animals were premedicated with atropine (0.05 mg/kg) and ketamine (20 mg/kg i.m.). They were anesthesized with thiopentone (5 mg/kg i.v.). After tracheostomy, animals were intubated and artificially ventilated by a volume regulated ventilator. During surgery, animals were given a continuous i.v. infusion of Ringer's solution, pancuronium bromide (0.25 mg/kg) and heparin. Each experiment lasted approximately 8 hours. Catheters were placed in the femoral artery for systemic blood pressure and heart rate monitoring and in the femoral vein for thiopentone, heparin and fluid administration (300 ml/hr). The contralateral femoral vein was canulated for blood sampling. […] Selective recording of the nasal arterial blood flow was performed with a Transonic flow probe (probe 2.4RB143) of 2.4 mm diameter placed around the sphenopalatine artery. The flow probe was connected to a T202S ultrasonic blood flowmeter. […]
# Variations in the area under the curve (AUC) of the sphenopalatine artery vascular resistance (Vr), derived from both mean arterial blood pressure and systemic blood flow curves, were analyzed over time. […] Vascular parameters were recorded simultaneously using a 6 pen trace recorder. […]
# [5] = tested on: sphenopalatine vascular resistance; assay: Vasodilator dose-response of SP and SP 5-11 in pig in vivo; settings: for reduction in SVR: before DPPIV
# Procedure: Experiments were performed on pigs of both sexes (body weight 18-25 kg). All animals were premedicated with atropine (0.05 mg/kg) and ketamine (20 mg/kg i.m.). They were anesthesized with thiopentone (5 mg/kg i.v.). After tracheostomy, animals were intubated and artificially ventilated by a volume regulated ventilator. During surgery, animals were given a continuous i.v. infusion of Ringer's solution, pancuronium bromide (0.25 mg/kg) and heparin. Each experiment lasted approximately 8 hours. Catheters were placed in the femoral artery for systemic blood pressure and heart rate monitoring and in the femoral vein for thiopentone, heparin and fluid administration (300 ml/hr). The contralateral femoral vein was canulated for blood sampling. Surgical preparation of the internal maxillary artery was done in accordance with Lacroix (Acta Physiol. Scand. 136:1-63 (1989)). Selective recording of the nasal arterial blood flow was performed with a Transonic flow probe (probe 2.4RB143) of 2.4 mm diameter placed around the sphenopalatine artery. The flow probe was connected to a T202S ultrasonic blood flowmeter. All the arterial branches situated downstream of the flow probe were ligated and cut except for the superficial temporal artery which was cannulated with a PE 90 catheter for infusions or injections.
# as §2, §3
# Therefore, the same animal was used to perform dose-response curves with SP both before and after pretreatment with DPPIV. A dose-response curve for duration of vasodilation and area under the curve was constructed using doses of SP in the range of 1 pg to 0.1 μg. […] The same animals received 50 μg (530 pmoles) of DPPIV and similar doses of SP were injected. […] Since DPPIV cleaves SP into SP 5-11, experiments were conducted to determine whether SP 5-11 is also capable of decreasing SVR.
# [6] = SNS and PBZ pretreatment, no DPPIV, capsaicin 8.2×10^−08 moles
molecule,measurement,setting,value
"COc1cc(CNC(=O)CCCCC=CC(C)C)ccc1O [Capsaicin, 8-methyl-N-vanillyl-6-nonenamide]",effect of capsaicin injection on Vr,"[1]; following SNS, similar to control conditions",dose-dependent decrease of Vr
NCCc1c[nH]cn1 [Histamine],reduction in duration of histamine effect vs control,[2]; histamine i.a. 1.4×10^−07 moles following SNS 10 Hz 5 minutes,32%
same,reduction in duration of histamine effect vs control,[2]; histamine i.a. 5.4×10^−09 moles following SNS 10 Hz 5 minutes,33%
FC(F)(F)c1cc(CO[C@H]2CCCN[C@H]2c2ccccc2)cc(C(F)(F)F)c1 [L-733060],vascular effect of the antagonist,[3]; pretreatment with 114 nmoles/kg,vasoconstrictive effect
same,blockade of SP-induced decrease in SVR,[4],clear inhibition of the SP effect
CC(COc1ccccc1)N(CCCl)Cc1ccccc1 (centres unmarked) [phenoxybenzamine],reduction of AUC of capsaicin effect,[1]; [6],26.6%
same,reduction of duration of vasodilation evoked by capsaicin,[1]; [6],39.9%
same,variation of vasodilatory effect of capsaicin,"[1]; after SNS and PBZ pretreatment, any doses, no DPPIV",no significant variation
same,MAP reduction,[3]; i.a. infusion of phenoxybenzamine,10+/−2%
"SP 5-11: C-terminal fragment of SP produced by DPPIV cleavage (QQFFGLM; ends and bridges not checked; UniProt P20366 62-68, looked up, fragment)",decrease in SVR,[5]; SP 5-11 10 pg,5%
same,decrease in SVR,[5]; SP 5-11 1 μg,35%
same,SP 5-11 less potent than SP at causing vasodilation,"[5]; pig, in vivo",at least 100 fold
"SP: substance P, bioactive peptide released by sensory neurons; NK1 agonist",reduction in SVR,[5]; SP 100 pg,13.1%
same,reduction in SVR,[5]; SP 1 ng,14.9%
same,potency of SP relative to SP 5-11 as a vasodilator,[5]; based on molarity,200 fold
same,vasodilation,[5]; local intraarterial administration of 1 pg SP,15.1% +/−3.3%
same,vasodilation,[5]; local intraarterial administration of 100 ng SP,37.3% +/−3.3%
